Source: patent publication US11548878B2, “Emopamil binding protein binding agent and use thereof” (FUJIFILM Toyama Chemical Co., Ltd., priority 2017, dated 2023)

Target: T1, EBP (Homo sapiens, UniProt Q15125)
T1 construct: A membrane fraction was collected from sigma-1 receptor-deficient human neuroblastoma (SH-SY5Y) cells; endogenous in cells; host or cells: sigma-1 receptor-deficient SH-SY5Y human neuroblastoma cells (membrane fraction)
Test: EBP Binding Test (Test Example 1): tritium-labeled Compound A binding to membrane fractions of sigma-1 receptor-deficient SH-SY5Y cells with EBP deleted or overexpressed
Experimental: The binding ability of Compound A to EBP was examined. The test was carried out in accordance with Receptor Signal Transduction Protocols, pp. 135-164 (ISBN 978-1-61779-125-3).
A membrane fraction was collected from sigma-1 receptor-deficient human neuroblastoma (SH-SY5Y) cells, in which EBP was deleted or was overexpressed. Inactivated fetal bovine serum was added to a liquid medium DMEM (Dulbecco's Modified Eagle's Medium) to a final concentration of 10%, and then, a Penicillin-Streptomycin solution (10000 U/mL Penicillin-10000 μg/mL Streptmycin) was added to the medium to a final concentration of 100 U/mL Penicillin-100 μg/mL Streptmycin. The SH-SY5Y cells were cultured in the thus prepared medium.
The method of preparing a membrane fraction is as follows. The cells cultured to a subconfluent state were recovered using a cell scraper, and were then suspended in a 50 mM Tris-HCl (pH=7.4) buffer, followed by disintegrating the cells with an ultrasonic disintegrator. The disintegrated solution was centrifuged (1000 g, 10 minutes), and the supernatant was then ultracentrifuged (28000 rpm, 30 minutes). Thereafter, the obtained precipitate was re-suspended in a 50 mM Tris-HCl (pH=7.4) buffer to obtain a membrane fraction. Regarding the thus prepared membrane fraction, the protein concentration was measured according to a BCA method, and the membrane fraction was then adjusted to a concentration of approximately 1 mg/mL. […]
The receptor binding test method is as follows. […] Thereafter, a liquid scintillation cocktail was added thereto, and the radiation dose (CPM) in each well was then measured using a scintillation counter.
The specific binding ability of Compound A to EBP was determined by subtracting the radiation dose of the control (Non-specific binding) from the radiation dose derived from the tritium-labeled Compound A at each concentration (Total binding). Since the amount of the protein used was different depending on the cell membrane, CPM per μg of the membrane fraction protein used in the reaction was calculated (CPM/protein amount).

T1 sequence (Q15125 2-230 limits assumed): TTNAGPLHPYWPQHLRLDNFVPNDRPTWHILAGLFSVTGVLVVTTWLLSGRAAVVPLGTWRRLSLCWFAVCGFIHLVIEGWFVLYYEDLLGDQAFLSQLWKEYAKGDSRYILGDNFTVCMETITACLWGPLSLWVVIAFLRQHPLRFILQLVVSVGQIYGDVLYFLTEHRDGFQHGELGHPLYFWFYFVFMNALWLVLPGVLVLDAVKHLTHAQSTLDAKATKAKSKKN

affinity for EBP (conclusion from FIG. 1 and FIG. 2): high affinity
radiation dose (specific binding, CPM/protein amount) in sigma-1 receptor-deficient and EBP-deficient cells compared with sigma-1 receptor-deficient cells (membrane fraction of SH-SY5Y cells, tritium-labeled Compound A 0.05-100.0 nM, 37° C. for 2 hours, FIG. 1): lower
radiation dose (specific binding, CPM/protein amount) in sigma-1 receptor-deficient and EBP-overexpressing cells compared with sigma-1 receptor-deficient cells (membrane fraction of SH-SY5Y cells, tritium-labeled Compound A 0.05-100.0 nM, 37° C. for 2 hours, FIG. 2): higher
SMILES: OC1CN(CCCOCCc2ccc3sccc3c2)C1 [Compound A]
